We go through eight molecules from publication PMC6100113, “Involvement of CYP4F2 in the Metabolism of a Novel Monophosphate Ester Prodrug of Gemcitabine and Its Interaction Potential In Vitro” (Molecules : A Journal of Synthetic Chemistry and Natural …, 2018).

For orientation: IC50 means the concentration needed to halve the response being measured. What is called Km is the concentration of substrate that gives half-maximal velocity.

Series [1] in a line: Metabolite identification by UPLC/Triple TOF MS in human liver microsomes. Particulars: Compound-3 10 μM, 1 mg/mL microsomes, NADPH, 60 min, HRMS. Details: key: √: metabolites were detected by high-resolution mass spectrometry. The series is classed as in vitro ADME. On the procedure:
(§1) For metabolite identification, a higher concentration of Compound-3 (10 μM) was incubated with liver microsomes (1 mg/mL) in the presence of NADPH (1 mM) and primary human hepatocytes at a density of 1 × 10^6 cell/mL. Samples were collected at 0 min and 60 min with the addition of ice-cold acetonitrile. After vortexing and centrifugation, the supernatant was transferred into a new tube and evaporated to dryness. The samples were then reconstituted in 100 μL of water and methanol (v/v, 9:1). An aliquot of 10 μL of reconstituted solution was injected into UPLC/Triple TOF 5600^+ MS for metabolite identification.
(§2) Identification of Compound-3 metabolites was carried out using Acquity UPLC/Triple TOF 5600^+ system. Chromatographic separation for Compound-3 and its metabolites were achieved by an Acquity UPLC HSS T3 column (100 × 2.1 mm i.d., […]; Waters Corp.) maintained at 40 °C. The mobile phase was a mixture of 0.02% formic acid in 5 mM ammonium acetate (A) and methanol (B). The gradient elution was started from 2% B and maintained for 4 min, then increased linearly to 75% B over the next 4 min and maintained for 8 min. […] The flow rate was 0.4 mL/min and the eluent was monitored by UV detection at 280 nm.
(§3) For mass detection, a Triple TOF 5600^+ mass spectrometer (AB Sciex, Framingham, MA, USA) was operated in positive ion electrospray (ES-positive) mode with the source temperature at 500 °C and scan range from m/z 100 to 1000 Da. Other parameters were set as follows: ion spray voltage, 5500 V; decluttering potential, 80 V; curtain gas, 40 psi; ion source gas 1, 55 psi; and ion source gas 2, 50 psi. Collision energies of 25 and 65 eV were used for TOF MS and product ion scans, respectively, and a collision energy spread of 20 was used in the MS/MS analysis. Information-dependent acquisition (IDA), together with real-time multiple mass defect filter, was used to trigger acquisition of MS/MS spectra.
Background: Microsomes from liver hold many membrane-bound enzymes, among them those of drug oxidation.

Series [2] can be described thus: Metabolite identification by UPLC/Triple TOF MS in rat intestinal microsomes. The series is classed as in vitro ADME. Details: key: √: metabolites were detected by high-resolution mass spectrometry. Particulars: Compound-3 10 μM, NADPH, 60 min, HRMS.
Series [3] concerns the target T1, CYP4F2 (Homo sapiens, UniProt P78329).
T1 construct: purchased Corning Gentest
T1 sequence (P78329 5-520): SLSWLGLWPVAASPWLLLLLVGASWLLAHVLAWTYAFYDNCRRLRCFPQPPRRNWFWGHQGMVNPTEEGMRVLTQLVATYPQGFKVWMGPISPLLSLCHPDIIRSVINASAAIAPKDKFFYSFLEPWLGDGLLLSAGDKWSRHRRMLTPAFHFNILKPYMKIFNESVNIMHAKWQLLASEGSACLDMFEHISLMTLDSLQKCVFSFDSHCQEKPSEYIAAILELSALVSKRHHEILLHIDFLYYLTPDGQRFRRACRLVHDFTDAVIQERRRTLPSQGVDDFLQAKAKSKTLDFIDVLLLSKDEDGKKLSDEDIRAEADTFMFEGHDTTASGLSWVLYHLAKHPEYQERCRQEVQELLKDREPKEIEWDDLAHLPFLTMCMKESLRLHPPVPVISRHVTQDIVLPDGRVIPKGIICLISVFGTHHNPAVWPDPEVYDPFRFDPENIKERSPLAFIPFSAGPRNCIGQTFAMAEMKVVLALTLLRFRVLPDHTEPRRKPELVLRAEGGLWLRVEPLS
As to the kind of experiment: Reaction phenotyping with recombinant CYP4F2. In kind it is in vitro ADME. Particulars: Compound-3 1 μM with recombinant CYP4F2 50 nM, NADPH, 37 °C (Figure S2). On the procedure: Compound-3 was incubated separately with human cDNA-expressed cytochrome P450s (CYP1A2, CYP2B6, CYP2C8, CYP2C9, CYP2C19, CYP2D6, CYP3A4, CYP4A11, CYP4F2 and CYP4F3). The incubation mixtures contained individual CYP isoenzymes (50 nM), potassium phosphate buffer (100 mM, pH 7.4), NADPH (1 mM), and Compound-3 (1 µM). The final volume of the incubation mixture was 50 µL. Before the start of the incubation, reaction mixtures were warmed up at 37 °C for 10 min. The reaction was initiated with the addition of NADPH and the incubations were performed at 37 °C in a water bath. […] Control samples without NADPH but substrates were included. The samples were then centrifuged and aliquots of 10 μL of the supernatants were transferred onto LC-MS/MS for the analysis of Compound-3 and M4 (carboxylic acid) levels.
The following are available online. Figure S1. Gemcitabine Formation from Compound-3 Hydrolysis as a function of alkaline phosphatase protein concentrations. Compound-3 (1 μM) was incubated with alkaline phosphatase concentrations ranging from 0.01–0.2 mg/mL at 37 °C (n = 3). Figure S2. Metabolites of Compound-3 in human recombinant CYP4F2. Compound-3 (1 μM) was incubated with human recombinant CYP4F2 (50 nM) in the presence of NADPH at 37 °C (n = 3).

Series [4] is described as follows: Metabolite identification by UPLC/Triple TOF MS in human hepatocytes. The series is classed as in vitro ADME. Set-up: key: √: metabolites were detected by high-resolution mass spectrometry. Particulars: Compound-3 10 μM, 1 × 10^6 cell/mL, 60 min, HRMS. The protocol:
as §1, §2, §3

Series [5] is described as follows: Metabolite identification by UPLC/Triple TOF MS in human intestinal microsomes. In kind it is in vitro ADME. Set-up: key: √: metabolites were detected by high-resolution mass spectrometry. The conditions noted are these: Compound-3 10 μM, NADPH, 60 min, HRMS. The protocol:
as §1, §2, §3

Series [6] in a line: Metabolite identification by UPLC/Triple TOF MS in rat liver microsomes. The conditions noted are these: Compound-3 10 μM, 1 mg/mL microsomes, NADPH, 60 min, HRMS. The series is classed as in vitro ADME. Set-up: key: √: metabolites were detected by high-resolution mass spectrometry. The protocol: as §1, §2, §3
The next series has as its system alkaline phosphatase. As to the kind of experiment: Hydrolysis of Compound-3 by alkaline phosphatase (gemcitabine formation). In kind it is in vitro ADME. Details: key to detected in matrix ALP: √: metabolites were detected by high-resolution mass spectrometry. Particulars: incubation of Compound-3 with alkaline phosphatase, HRMS. On the procedure: Compound-3 was incubated with alkaline phosphatase, and the linearity of gemcitabine formation as a function of time and protein concentration was first examined. The reaction mixtures consisted of alkaline phosphatase, 100 mM phosphate buffer (pH 7.4) and Compound-3 (10 μM). The final volume of the incubation mixture was 200 μL. The mixture was warmed up at 37 °C for 2 min prior to the initiation of the reaction with the addition of the enzyme. At specified time points, 25 μL of the incubation mixtures was added to 100 μL cold acetonitrile containing the internal standard to terminate the reaction. Levels of gemcitabine were determined by LC-MS/MS. […] Compound-3 was tested at concentrations ranging from 0 to 200 μM. Kinetic parameters of Compound-3 in alkaline phosphatase were calculated using GraphPad Prism (Version 6.0, GraphPad Software Inc., San Diego, CA) and nonlinear regression analysis. Equation used was as the following (the Michaelis-Menten equation):V = (Vmax × [S])/(Km + [S])(1) where V is the rate of metabolite formation, Vmax is the maximum velocity, Km is the Michaelis constant (substrate concentration at 0.5 Vmax), and [S] is the substrate concentration.

Series [7] relates to Compound-3 metabolism in human liver microsomes. As to the kind of experiment: Inhibition of Compound-3 metabolism in HLM by selective chemical inhibitors of CYP isozymes. In kind it is in vitro ADME. The conditions noted are these: HLM 0.2 mg/mL, 1 μM Compound-3; HET-0016 1 µM, ketoconazole 1 µM, quercetin 10 µM, other inhibitors at the concentrations of b45. On the procedure: Incubation contained 0.2 mg/mL human liver microsomes, 100 mM phosphate buffer (pH 7.4), 1 mM NADPH, 1 μM Compound-3, and inhibitors at specified concentrations. Compound-3 remaining was calculated based on concentrations after incubation in the presence or absence of respective inhibitors.

Series [8] deals with T1, CYP4F2. As to the kind of experiment: CYP4F2-mediated drug interaction (inhibition of CYP4F2). Particulars: substrate Compound-3 1 μM, CYP4F2 10 nM, 10 min, M4 formation; read-out: IC50, inhibition of CYP4F2 mediated metabolism of Compound-3. In kind it is in vitro ADME. On the procedure: CYP4F2-mediated drug interactions were examined in two separate setting: pafuramidine as the substrate and Compound-3 as the inhibitor; and Compound-3 as the substrate and pafuramidine as the inhibitor. The reaction system contained 10 nM CYP4F2, 100 mM phosphate buffer (pH 7.4), 1 mM NADPH, and substrate (pafuramidine 1.5 μM or Compound-3 1 μM). Inhibitor (Compound-3 or pafuramidine) concentrations ranged from 0 to 10,000 nM. The incubation time was 5 min for pafuramidine and 10 min for Compound-3. Incubation temperature was 37 °C. LC-MS/MS analysis was performed as described above for the levels of DB775 or M4 (carboxylic acid metabolite of Compound-3).

Substrate in series [9]: CCCCCCCCCCCCCCCCCCOCCOP(=O)(O)OCC1OC(n2ccc(N)nc2=O)C(F)(F)C1O
As to the kind of experiment: Formation kinetics of M4 (carboxylic acid) from Compound-3 by CYP4F2. In kind it is in vitro ADME, human. Particulars: other: CYP4F2 10 nM, 10 min, substrate inhibition model, estimated; pH 7.4; 37.0 °C. On the procedure:
To investigate the formation kinetics of carboxylic acid metabolite (M4) from Compound-3, varying concentrations of Compound-3 (0–10 µM) were incubated with 10 nM CYP4F2 and 1 mM NADPH in 100 mM phosphate buffer (pH 7.4). The reactions were carried at 37 °C for 10 min and terminated with the addition of ice-cold acetonitrile containing the internal standard. Samples were then centrifuged, and aliquots of 10 μL of the supernatants were analyzed by LC-MS/MS for M4 levels.
Kinetic parameters of Compound-3 in recombinant human CYP4F2 were calculated using Enzyme Kinetics Modules of SigmaPlot (Version 14.0, Systat Software, San Jose, CA, USA). An uncompetitive substrate inhibition equation was also used:V = (Vmax × [S])/{Km + [S] × (1 + [S]/Ki)}(2) where Ki is the disassociation constant describing the inhibitor-enzyme interaction.

Consider `Nc1ccn(C2OC(COP(=O)(O)OCCOCCCCCCCCCCCCCCCCCC=O)C(O)C2(F)F)c(=O)n1` (stereo not shown) [Compound M2], for which the “detected in matrix HLM” value in [1] was “√”. The “detected in matrix RIM” value in series [2] is listed as “√”. For the same molecule, the “incubation time at which metabolite formation peaked” value (shortened to “incubation time”) on CYP4F2 [3] came to 5 min. The “detected in matrix Human Hepatocytes” value in series [4] is recorded as “√”. Also, the “detected in matrix HIM” value in [5] was “√”.
For the molecule `Nc1ccn(C2OC(COP(=O)(O)OCCOCCCCCCCCCCCCCCCCCCO)C(O)C2(F)F)c(=O)n1` (stereo not shown) [Compound M3], the “detected in matrix HLM” value in series [1] was “√”. In addition, in [2], the “detected in matrix RIM” value is listed as “√”. Further, the “incubation time” value at CYP4F2 [3] is 5 min. In addition, the “detected in matrix RLM” value in series [6] was “√”. Also, the “detected in matrix Human Hepatocytes” value in series [4] was “√”. For the same molecule, the “detected in matrix HIM” value in series [5] is recorded as “√”.
In the case of `Nc1ccn(C2OC(COP(=O)(O)OCCOCCCCCCCCCCCCCCCCCC(=O)O)C(O)C2(F)F)c(=O)n1` (stereo not shown) [Compound M4], the “detected in matrix HLM” value in [1] is “√”. In series [2], the “detected in matrix RIM” value is listed as “√”. The “incubation time” value at CYP4F2 [3] is given as 60 min. In series [6], the “detected in matrix RLM” value was “√”. Also, the “detected in matrix Human Hepatocytes” value in [4] is reported as “√”. For the same molecule, the “detected in matrix HIM” value in [5] is on record as “√”.
Turning to `Nc1ccn([C@@H]2O[C@H](CO)[C@@H](O)C2(F)F)c(=O)n1` [Gemcitabine, 2′,2′-difluorodeoxycytidine], the “detected in matrix ALP” value in the series on alkaline phosphatase is “√”.
Take `CC(=O)N1CCN(c2ccc(OCC3COC(Cn4ccnc4)(c4ccc(Cl)cc4Cl)O3)cc2)CC1` (stereo not shown) [ketoconazole]: the “inhibition of Compound-3 metabolism in HLM” value in series [7] was “moderate inhibition”.
On to `CONC(=N)c1ccc(-c2ccc(-c3ccc(C(=N)NOC)cc3)o2)cc1` [pafuramidine, reference compound], for which the IC50 on CYP4F2 [8] amounted to 240 nM.
For `O=c1c(O)c(-c2ccc(O)c(O)c2)oc2cc(O)cc(O)c12` [quercetin], in [7], the “inhibition of Compound-3 metabolism in HLM” value is listed as “moderate inhibition”.

B1: CYP4F2 (Homo sapiens) (protein)
chain: T1 sequence (P78329 5-520)
notes: purchased Corning Gentest
As for B1, the Km in [9] is on record as 0.69 µM.
